Laboratory results from article PMC10224510, “Luteolin and Vernodalol as Bioactive Compounds of Leaf and Root Vernonia amygdalina Extracts: Effects on α-Glucosidase, Glycation, ROS, Cell Viability, and In Silico ADMET Parameters” (Pharmaceutics, 2023).

Target: α-glucosidase (EC 3.2.1.20, Saccharomyces cerevisiae type I)
Test: enzyme inhibition with pNPG substrate, absorbance at […] nm
Format: biochemical

O=c1cc(-c2ccc(O)c(O)c2)oc2cc(O)cc(O)c12 [luteolin]
IC50: 16.2 µM
